Data on six compounds can be found in patent US9169255B2, “Caffeinated compounds and compositions for treatment of amyloid diseases and synucleinopathies” (ProteoTech Inc, priority 2011, dated 2015).

What all share (assay type): biochemical
Experiment [1] addresses T1, α-synuclein fibrils (Homo sapiens, UniProt P37840).
T1 construct: purchased rPeptide, Bogart, Calif
Briefly: Congo red binding assay, pre-formed α-synuclein fibrils. The conditions noted are these: 2-day incubation. The procedure:
In this set of studies, the efficacy of certain compounds provided herein to cause a disassembly/disruption/disaggregation of pre-formed fibrils of Parkinson's disease (i.e. consisting of α-synuclein fibrils) was analyzed. For the studies described below in Parts A and B, 69 μM of α-synuclein (rPeptide, Bogart, Calif.) was first incubated at 37° C. for 4 days in 20 mM sodium acetate buffer at pH 4 with circular shaking (1,300 rpm) to cause α-synuclein aggregation and fibril formation.
In the Congo red binding assay, the ability of a given test compound to alter α-synuclein aggregate binding to Congo red is quantified. In this assay Congo red binds specifically to fibrillar protein, and this binding is directly proportional to the amount of fibrils formed. Following initial α-synuclein fibrilization as described above, α-synuclein aggregates and test compounds were incubated for 2 days and then vacuum filtered through a 0.2 μm filter. The amount of α-synuclein retained in the filter was then quantitated following staining of the filter with Congo red. After appropriate washing of the filter, any lowering of the Congo red color on the filter in the presence of the test compound (compared to the Congo red staining of the protein in the absence of the test compound—i.e. α-synuclein alone) was indicative of the test compound's ability to diminish/alter the amount of aggregated and congophilic α-synuclein and thus cause disassembly/disruption/disaggregation of α-synuclein fibrils.
In one study, the ability of α-synuclein fibrils to bind Congo red following a 2-day incubation of α-synuclein in the absence or presence of increasing amounts of the compounds provided herein, including positive reference (control) compounds (at test compound:α-synuclein molar ratios of 10:1, 1:1, 0.1:1, 0.01:1) was determined. The results of this study indicate that compounds of this invention disrupt/disaggregate/disassemble pre-formed α-synuclein aggregates as indicated by their ability to inhibit Parkinson's disease type α-synuclein fibril binding to Congo red.

Experiment [2] addresses wild-type α-synuclein (Homo sapiens, UniProt P37840). Briefly: Thioflavin T fluorometry, inhibition of formation of α-synuclein β-sheet from fresh α-synuclein. The procedure:
To test whether the compounds can inhibit formation of α-synuclein β-sheet, the same assay as described in Example 2, was utilized but the α-synuclein was fresh and not pre-fibrillized. Fresh wild-type α-synuclein was dissolved in a buffer containing 9.5 mM phosphate, 137 mM sodium chloride and 2.7 mM potassium chloride (phosphate-buffered saline; PBS), and the pH was adjusted to pH 7.4. This solution was then lyophilized and dissolved in 1.0 ml deionized water at 0.5 mg/ml (35 μM). As indicated above the test compounds (typically at test compound:α-synuclein molar ratios of 10:1, 1:1, 0.1:1, and 0.01:1) were then added to the α-synuclein. Following 24-38 hours of co-incubation, the incubation mixtures were diluted 1:10 and 50 μl of each diluted incubation mixture was transferred into a 96-well microtiter plate containing 150 μl of distilled water and 50 μl of a Thioflavin T solution (i.e. 500 μM Thioflavin T in 250 mM phosphate buffer, pH 6.8). The final concentration of α-synuclein was 0.7 μM and the concentration of Thioflavin T reagent was 100 μM in 50 mM phosphate buffer, pH 6.8. In some experiments, 200 μl of each diluted incubation mixture was combined in the 96-well microtiter plate with 50 μl of the 500 μM Thioflavin T solution to give 2.8 μM α-synuclein in the presence of 100 μM Thioflavin T reagent. The fluorescence was read at 485 nm (444 nm excitation wavelength) using an ELISA plate fluorometer after subtraction with buffer alone or compound alone, as blank. Positive control compound 1 performed nearly identically in inhibiting α-synuclein aggregation regardless of whether 0.7 μM or 2.8 μM α-synuclein was subsequently used in the Thioflavin T reaction.

The target in experiment [3] is T2, Aβ 1-42 fibrils (Homo sapiens, UniProt P05067).
T2 construct: pre-fibrillized human Aβ 1-42 (rPeptide); purchased rPeptide
Briefly: Thioflavin T fluorometry, disruption of pre-fibrillized Aβ 1-42. As to conditions: for Thioflavin T fluorometry % Inhibition: 2-day incubation; for effect against Aβ fibrils/aggregates at substoichiometric concentrations: test compound:Aβ molar ratios of 0.1:1 and 0.05:1. An excerpt:
In this assay Thioflavin T binds specifically to fibrillar amyloid, and this binding produces a fluorescence enhancement at 485 nm that is directly proportional to the amount of amyloid fibrils formed. The higher the fluorescence, the greater the amount of amyloid fibrils formed (Naki et al., Lab. Invest. 65:104-110, 1991; Levine III, Protein Sci. 2:404-410, 1993; Amyloid: Int. J. Exp. Clin. […] The emission fluorescence was read at 485 nm (444 nm excitation wavelength) using an ELISA plate fluorometer after subtraction with buffer alone or compound alone, as blank.

Experiment [4] deals with T2, Aβ 1-42 fibrils. Briefly: Congo red binding assay, Aβ 1-42 fibrils. The conditions noted are these: for Congo Red Binding % Inhibition: 2-day incubation. The procedure: In the Congo red binding assay the ability of a test compound to alter β-amyloid binding to Congo red is quantified. In this assay, Aβ 1-42 (as prepared for the Thio T assay) and test compounds were incubated for 2 days and then vacuum filtered through a 0.2 μm filter. The amount of Aβ 1-42 retained in the filter was then quantitated following staining of the filter with Congo red. After appropriate washing of the filter, any lowering of the Congo red color on the filter in the presence of the test compound (compared to the Congo red staining of the amyloid protein in the absence of the test compound) was indicative of the test compound's ability to diminish/alter the amount of aggregated and congophilic Aβ.

Where [5] appears, read: compound:peptide molar ratio 0.01:1.
The mark [6] stands for this setting: compound:peptide molar ratio 0.1:1.
Setting [7] is: compound:peptide molar ratio 1:1.
Setting [8] is: compound:peptide molar ratio 10:1.
The mark [9] stands for this setting: compound:peptide molar ratio 0.05:1.
[10] abbreviates: compound:peptide molar ratio 5:1.

T2 sequence (P05067 672-713 limits assumed): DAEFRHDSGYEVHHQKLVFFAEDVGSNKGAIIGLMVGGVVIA

Consider “1,3-dimethyl-7-(3′,4′-dibenzyloxy)benzyl-8-(3′,4′-dihydroxyphenyl)xanthine [PD-154]”, for which the “Congo Red Binding- % Inhibition” value in experiment [1] (setting [5]) was 3%; in experiment [1] (setting [6]), 0%; in experiment [1] (setting [7]), 12%; in experiment [1] (setting [8]), 0%. Further, the “ThioT Assay % Inhibition” value came to 8% in experiment [2] (setting [5]), 44% in experiment [2] (setting [6]), 89% in experiment [2] (setting [7]) and 89% in experiment [2] (setting [8]). The “Thioflavin T fluorometry % Inhibition” value came out at 43% in experiment [3] (setting [9]); 36% in experiment [3] (setting [6]); 60% in experiment [3] (setting [7]); 74% in experiment [3] (setting [10]); 80% in experiment [3] (setting [8]). Also, the “effect against Aβ fibrils/aggregates at substoichiometric concentrations” value in experiment [3] is “effective”. For the same compound, the “Congo Red Binding % Inhibition” value in experiment [4] (setting [6]), in experiment [4] (setting [7]), in experiment [4] (setting [10]) and in experiment [4] (setting [8]) was 0% in each case.

Take `Cn1c(=O)n(Cc2ccc(O)c(O)c2)c(=O)c2c1ncn2Cc1ccc(O)c(O)c1` [PD-151, 3-Methyl-1,7-bis(3′,4′-dihydroxybenzyl)xanthine]: the “Congo Red Binding- % Inhibition” value in experiment [1] (setting [5]) amounted to 3%; in experiment [1] (setting [6]) it was 1%; in experiment [1] (setting [7]) it was 6%; in experiment [1] (setting [8]), 22%. In addition, the “ThioT Assay % Inhibition” value was 0% in experiment [2] (setting [5]), 0% in experiment [2] (setting [6]), 0% in experiment [2] (setting [7]) and 78% in experiment [2] (setting [8]). The “Thioflavin T fluorometry % Inhibition” value turned out to be 18% in experiment [3] (setting [9]); 20% in experiment [3] (setting [6]); 56% in experiment [3] (setting [7]); 87% in experiment [3] (setting [10]); 94% in experiment [3] (setting [8]). Moreover, the “Congo Red Binding % Inhibition” value in experiment [4] (setting [6]) is on record as 13%; in experiment [4] (setting [7]), 12%; in experiment [4] (setting [10]), 47%; in experiment [4] (setting [8]), 63%.

Regarding `Cn1cnc2c1c(=O)n(Cc1ccc(O)c(O)c1)c(=O)n2Cc1ccc(O)c(O)c1` [PD-150, 7-Methyl-1,3-bis(3′,4′-dihydroxy)benzylxanthine], the “Congo Red Binding- % Inhibition” value in experiment [1] (setting [8]) worked out at 35%. Further, the “ThioT Assay % Inhibition” value was found to be 0% in experiment [2] (setting [5]), 0% in experiment [2] (setting [6]), 22% in experiment [2] (setting [7]) and 91% in experiment [2] (setting [8]). Moreover, the “Thioflavin T fluorometry % Inhibition” value in experiment [3] (setting [9]) was 41%; in experiment [3] (setting [6]), 35%; in experiment [3] (setting [7]), 67%; in experiment [3] (setting [10]), 87%; in experiment [3] (setting [8]), 94%. Moreover, the “effect against Aβ fibrils/aggregates at substoichiometric concentrations” value in experiment [3] is recorded as “effective”. Besides, the “Congo Red Binding % Inhibition” value in experiment [4] (setting [6]) was 10%; in experiment [4] (setting [7]), 18%; in experiment [4] (setting [10]) it was 46%; in experiment [4] (setting [8]), 60%.

With `Cn1c(=O)c2c(nc(-c3ccc(O)c(O)c3)n2C)n(C)c1=O` [PD-153, 1,3,7-trimethyl-8-(3′,4′-dihydroxyoxyphenyl)xanthine], the “Congo Red Binding- % Inhibition” value in experiment [1] (setting [5]) is given as 1%; in experiment [1] (setting [6]) it was 2%; in experiment [1] (setting [7]), 6%; in experiment [1] (setting [8]) it was 18%. Also, the “ThioT Assay % Inhibition” value in experiment [2] (setting [5]) stood at 13%; in experiment [2] (setting [6]), 23%; in experiment [2] (setting [7]), 0%; in experiment [2] (setting [8]), 80%. The “Thioflavin T fluorometry % Inhibition” value in experiment [3] (setting [9]) amounted to 5%; in experiment [3] (setting [6]), 0%; in experiment [3] (setting [7]), 6%; in experiment [3] (setting [10]) it was 17%; in experiment [3] (setting [8]) it was 63%. For the same compound, the “Congo Red Binding % Inhibition” value was 7% in experiment [4] (setting [6]), 20% in experiment [4] (setting [7]), 19% in experiment [4] (setting [10]) and 20% in experiment [4] (setting [8]).

With `Cn1c(=O)c2c(ncn2Cc2ccc(O)c(O)c2)n(Cc2ccc(O)c(O)c2)c1=O` [PD-152], the “Congo Red Binding- % Inhibition” value in experiment [1] (setting [5]) is reported as 0%; in experiment [1] (setting [6]), 6%; in experiment [1] (setting [7]) it was 19%; in experiment [1] (setting [8]), 22%. Moreover, the “ThioT Assay % Inhibition” value was determined as 0% in experiment [2] (setting [5]), 0% in experiment [2] (setting [6]), 0% in experiment [2] (setting [7]) and 72% in experiment [2] (setting [8]). In addition, the “Thioflavin T fluorometry % Inhibition” value in experiment [3] (setting [9]) came out at 12%; in experiment [3] (setting [6]), 13%; in experiment [3] (setting [7]), 54%; in experiment [3] (setting [10]), 87%; in experiment [3] (setting [8]), 91%. Moreover, the “Congo Red Binding % Inhibition” value in experiment [4] (setting [6]) was 4%; in experiment [4] (setting [7]), 21%; in experiment [4] (setting [10]), 48%; in experiment [4] (setting [8]) it was 59%.

Turning to `Cn1c(=O)c2c(ncn2C)n(C)c1=O` [Caffeine, reference compound], the “Congo Red Binding- % Inhibition” value in experiment [1] (setting [8]) is listed as 0%. Also, the “ThioT Assay % Inhibition” value in experiment [2] (setting [5]), in experiment [2] (setting [6]), in experiment [2] (setting [7]) and in experiment [2] (setting [8]) was 0% throughout. The “inhibition of Aβ 1-42 fibrils (Thioflavin T fluorometry)” value in experiment [3] (all concentrations tested) is given as “no significant inhibition”. Besides, the “Thioflavin T fluorometry % Inhibition” value in experiment [3] (setting [7]) is 0%; in experiment [3] (setting [10]), 0%; in experiment [3] (setting [8]), 8%. For the same compound, the “inhibition of Aβ 1-42 fibril binding to Congo red” value in experiment [4] (all concentrations tested) was “no significant inhibition”. Further, the entries for the “Congo Red Binding % Inhibition” value in experiment [4] (setting [7]), in experiment [4] (setting [10]) and in experiment [4] (setting [8]) were 0%, 0% and 1%, respectively.
